{
  "source": "patent US20120122727A1",
  "about": "“IN VITRO METHOD FOR PREDICTING WHETHER A COMPOUND IS GENOTOXIC IN VIVO” (priority 2009, published 2012)",
  "tested_on": "primary mouse hepatocytes",
  "test": "Gene expression (Affymetrix Mouse Genome 430 2.0) in primary mouse hepatocytes, true vs false GTX, 24 h and 48 h",
  "conditions": "log2, corrected for vehicle control",
  "data": [
    {"smiles": "CN(C)N=O", "note": "[DMN, Dimethylnitrosamine]", "values": [
      {"measurement": "Gene expression data AF000969 (Cadps2)", "setting": "24 h average", "value": "−1.039"},
      {"measurement": "Gene expression data AF022072 (Grb10)", "setting": "24 h average", "value": "−1.913"},
      {"measurement": "Gene expression data AF065917 (Lif)", "setting": "24 h average", "value": 1.804},
      {"measurement": "Gene expression data AF204959 (Cyp3a25 /// LOC622249)", "setting": "24 h average", "value": "−0.2993"},
      {"measurement": "Gene expression data AF297615 (Ggta1)", "setting": "24 h average", "value": 3.2188},
      {"measurement": "Gene expression data AI594683 (Dmn)", "setting": "24 h average", "value": 3.164},
      {"measurement": "Gene expression data AI596632 (Ptprg /// LOC632664)", "setting": "24 h average", "value": "−1.9"},
      {"measurement": "Gene expression data AI987929 (Ndrg1)", "setting": "24 h average", "value": "−0.9838"},
      {"measurement": "Gene expression data AK004419 (Fbxl17)", "setting": "24 h average", "value": "−1.22"},
      {"measurement": "Gene expression data AK005731 (1700007K13Rik)", "setting": "24 h average", "value": 5.486},
      {"measurement": "Gene expression data AK007766 (1810044A24Rik)", "setting": "24 h average", "value": "−0.8706"},
      {"measurement": "Gene expression data AK007854 (1810053B23Rik)", "setting": "24 h average", "value": 2.173},
      {"measurement": "Gene expression data AK009736 (Gpr137b /// LOC664862 /// LOC673335)", "setting": "24 h average", "value": "−0.8367"},
      {"measurement": "Gene expression data AK010447 (Smyd3)", "setting": "24 h average", "value": "−1.0358"},
      {"measurement": "Gene expression data AK014608 (4632434l11Rik)", "setting": "24 h average", "value": 1.756},
      {"measurement": "Gene expression data AK019979 (2610528E23Rik)", "setting": "24 h average", "value": "−1.324"},
      {"measurement": "Gene expression data AV095209 (Mthfd1l)", "setting": "24 h average", "value": "−1.007"},
      {"measurement": "Gene expression data AV141095 (1110033M05Rik)", "setting": "24 h average", "value": "−1.375"},
      {"measurement": "Gene expression data AV173571 (1700106N22Rik)", "setting": "24 h average", "value": "−1.0106"},
      {"measurement": "Gene expression data AV219418 (Ldhb)", "setting": "24 h average", "value": 2.743},
      {"measurement": "Gene expression data AV223474 (Zdhhc14)", "setting": "24 h average", "value": "−0.9067"},
      {"measurement": "Gene expression data AV298304 (Homez)", "setting": "24 h average", "value": 1.8715},
      {"measurement": "Gene expression data AV327248 (Zfp365 /// LOC674611)", "setting": "24 h average", "value": 4.114},
      {"measurement": "Gene expression data AV377066 (9130221J18Rik)", "setting": "24 h average", "value": 0.9605},
      {"measurement": "Gene expression data AW240761 (Tbc1d5)", "setting": "24 h average", "value": "−1.191"},
      {"measurement": "Gene expression data AW543460 (Pard3)", "setting": "24 h average", "value": "−1.4802"},
      {"measurement": "Gene expression data AW543723", "setting": "24 h average", "value": 1.95},
      {"measurement": "Gene expression data AW986246 (Maoa)", "setting": "24 h average", "value": "−0.372"},
      {"measurement": "Gene expression data BB027848 (4732466D17Rik)", "setting": "24 h average", "value": 1.126},
      {"measurement": "Gene expression data BB043558 (9230114K14Rik)", "setting": "24 h average", "value": 2.407},
      {"measurement": "Gene expression data BB275142 (AW456874)", "setting": "24 h average", "value": 1.902},
      {"measurement": "Gene expression data BB308836 (Ppm1l)", "setting": "24 h average", "value": "−0.9881"},
      {"measurement": "Gene expression data BB318221 (Zdhhc14)", "setting": "24 h average", "value": "−1.041"},
      {"measurement": "Gene expression data BB463610 (4632434l11Rik)", "setting": "24 h average", "value": 1.9965},
      {"measurement": "Gene expression data BB526605 (Mipol1)", "setting": "24 h average", "value": "−1.5816"},
      {"measurement": "Gene expression data BB770528 (Rai2)", "setting": "24 h average", "value": 2.8},
      {"measurement": "Gene expression data BB821363 (Scfd2)", "setting": "24 h average", "value": "−1.143"},
      {"measurement": "Gene expression data BC004827 (Psat1)", "setting": "24 h average", "value": "−1.518"},
      {"measurement": "Gene expression data BC008626 (Icam1)", "setting": "24 h average", "value": 2.035},
      {"measurement": "Gene expression data BC010462 (BC010462)", "setting": "24 h average", "value": 0.7519},
      {"measurement": "Gene expression data BC012247 (Dcxr)", "setting": "24 h average", "value": 1.6567},
      {"measurement": "Gene expression data BC012260 (Psmf1)", "setting": "24 h average", "value": 1.0548},
      {"measurement": "Gene expression data BC015270 (Hist2h3c2)", "setting": "24 h average", "value": 0.9816},
      {"measurement": "Gene expression data BC016073 (Cdkal1)", "setting": "24 h average", "value": "−1.243"},
      {"measurement": "Gene expression data BC016265 (Ube2e2)", "setting": "24 h average", "value": "−1.287"},
      {"measurement": "Gene expression data BC019882 (Acaa1b)", "setting": "24 h average", "value": 2.057},
      {"measurement": "Gene expression data BC025501 (Aaas)", "setting": "24 h average", "value": 1.6386},
      {"measurement": "Gene expression data BC025837 (Sbk1)", "setting": "24 h average", "value": 0.9087},
      {"measurement": "Gene expression data BC025915 (Cova1)", "setting": "24 h average", "value": "−0.9502"},
      {"measurement": "Gene expression data BC026422 (Tgm1)", "setting": "24 h average", "value": 2.22},
      {"measurement": "Gene expression data BF719766 (Thyn1)", "setting": "24 h average", "value": 1.824},
      {"measurement": "Gene expression data BG065754 (Ccng1)", "setting": "24 h average", "value": 0.9587},
      {"measurement": "Gene expression data BG066903 (Kif16b)", "setting": "24 h average", "value": "−0.8682"},
      {"measurement": "Gene expression data BG069873 (Gnb1l)", "setting": "24 h average", "value": 2.2987},
      {"measurement": "Gene expression data BG070887 (Gtdc1)", "setting": "24 h average", "value": "−1.112"},
      {"measurement": "Gene expression data BG076151 (Ppm1d)", "setting": "24 h average", "value": 1.946},
      {"measurement": "Gene expression data BG261907 (Large)", "setting": "24 h average", "value": "−1.3871"},
      {"measurement": "Gene expression data BI651416 (Cdc42bpg)", "setting": "24 h average", "value": 1.7218},
      {"measurement": "Gene expression data BI660702 (Ell3)", "setting": "24 h average", "value": 2.514},
      {"measurement": "Gene expression data BM198879 (Ercc5)", "setting": "24 h average", "value": 1.2634},
      {"measurement": "Gene expression data BM230508 (A030007D23Rik)", "setting": "24 h average", "value": 2.304},
      {"measurement": "Gene expression data NM_007987 (Fas)", "setting": "24 h average", "value": 2.421},
      {"measurement": "Gene expression data NM_008522 (Ltf)", "setting": "24 h average", "value": 3.616},
      {"measurement": "Gene expression data NM_008576 (Abcc1)", "setting": "24 h average", "value": "−0.9295"},
      {"measurement": "Gene expression data NM_011176 (St14)", "setting": "24 h average", "value": 1.574},
      {"measurement": "Gene expression data NM_011316 (Saa4)", "setting": "24 h average", "value": 2.1585},
      {"measurement": "Gene expression data NM_012006 (Acot1)", "setting": "24 h average", "value": 2.033},
      {"measurement": "Gene expression data NM_013866 (Zfp385)", "setting": "24 h average", "value": 2.361},
      {"measurement": "Gene expression data NM_018770 (Igsf4a)", "setting": "24 h average", "value": "−0.8412"},
      {"measurement": "Gene expression data NM_021451 (Pmaip1)", "setting": "24 h average", "value": 3.698},
      {"measurement": "Gene expression data NM_025770 (Atg10)", "setting": "24 h average", "value": "−0.5113"},
      {"measurement": "Gene expression data NM_028803 (Gbe1)", "setting": "24 h average", "value": "−1.103"},
      {"measurement": "Gene expression data NM_030697 (Ankrd47)", "setting": "24 h average", "value": 3.211},
      {"measurement": "Gene expression data NM_053168 (Trim11)", "setting": "24 h average", "value": 1.0583},
      {"measurement": "Gene expression data NM_134188 (Acot2)", "setting": "24 h average", "value": "−0.5001"},
      {"measurement": "Gene expression data Y15910 (Diap2)", "setting": "24 h average", "value": "−1.636"},
      {"measurement": "Gene expression AA561726 average", "setting": "48 h", "value": "−0.3534"},
      {"measurement": "Gene expression AF000969 average", "setting": "48 h", "value": "−1.114"},
      {"measurement": "Gene expression AF022072 average", "setting": "48 h", "value": "−1.2797"},
      {"measurement": "Gene expression AF033112 average", "setting": "48 h", "value": 1.817},
      {"measurement": "Gene expression AF055573 average", "setting": "48 h", "value": "−1.913"},
      {"measurement": "Gene expression AF069954 average", "setting": "48 h", "value": 1.631},
      {"measurement": "Gene expression AF297615 average", "setting": "48 h", "value": 3.153},
      {"measurement": "Gene expression AF335325 average", "setting": "48 h", "value": 1.6857},
      {"measurement": "Gene expression AI594683 average", "setting": "48 h", "value": 3.7761},
      {"measurement": "Gene expression AI747296 average", "setting": "48 h", "value": "−0.4333"},
      {"measurement": "Gene expression AK005731 average", "setting": "48 h", "value": 4.617},
      {"measurement": "Gene expression AK007854 average", "setting": "48 h", "value": 0.8396},
      {"measurement": "Gene expression AK010447 average", "setting": "48 h", "value": "−0.8634"},
      {"measurement": "Gene expression AK010738 average", "setting": "48 h", "value": 1.343},
      {"measurement": "Gene expression AK014608 average", "setting": "48 h", "value": 1.391}
    ]}
  ]
}
